From ChEMBL document CHEMBL3352500, “Identification and characterization of an anti-pseudomonal dichlorocarbazol derivative displaying anti-biofilm activity” (Bioorg Med Chem Lett, 2014) come the findings set out here.

Values after ≈ are worked out from the molar mass of the structure shown. Active and inactive are the calls of the source.

The subject of series [1] is Pseudomonas aeruginosa. Nature of the series: Antibacterial activity against Pseudomonas aeruginosa after 24 hrs by two-fold broth microdilution method. In kind it is functional.
The subject of series [2] is Staphylococcus aureus. Nature of the series: Antibacterial activity against Staphylococcus aureus SH1000. It is filed as functional.
In series [3] the test system is Escherichia coli. Put plainly: Antibacterial activity against Escherichia coli TG1. It is filed as functional.
For series [4], the system named is Staphylococcus aureus. Nature of the series: Antibiofilm activity against Staphylococcus aureus SH1000 after 24 hrs. In kind it is functional.
Series [5] concerns Pseudomonas aeruginosa. Nature of the series: Antibacterial activity against ticarcillin/cefepime-resistant Pseudomonas aeruginosa clinical isolate PA1250. It is filed as functional.
Series [6] has as its system Pseudomonas aeruginosa. Put plainly: Antibacterial activity against ticarcillin-resistant Pseudomonas aeruginosa clinical isolate PA08. In kind it is functional.
Series [7] in a line: Cytotoxicity against human endothelial cells assessed as effect on tube formation at 4.63 ug/ml after 4 hrs. In kind it is cell-based. The conditions noted are these: endothelial cell.
Series [8] can be described thus: Cytotoxicity against human osteoblasts assessed as cell viability at 4.63 ug/ml after 2 hrs. The following applies: read-out: Activity. It is filed as cell-based, Osteoblast.
Series [9] relates to Porphyromonas gingivalis. Put plainly: Antibacterial activity against Porphyromonas gingivalis ATCC 33277. In kind it is functional.
Series [10] concerns Escherichia coli. Put plainly: Antibiofilm activity against Escherichia coli TG1 after 24 hrs. In kind it is functional.
Series [11] relates to Pseudomonas aeruginosa. Put plainly: Antibiofilm activity against Pseudomonas aeruginosa on smooth titanium disc assessed as reduction in total area fraction at 1 to 12 ug/ml after 19 hrs by confocal laser scanning microscopy. It is filed as functional.
Series [12] in a line: Cytotoxicity against human mesenchymal stem cells assessed as cell viability at 4.63 ug/ml after 2 hrs. It is filed as cell-based. The following applies: read-out: Activity.
Series [13] has as its system Pseudomonas aeruginosa. Nature of the series: Antibacterial activity against ticarcillin-resistant Pseudomonas aeruginosa clinical isolate PA129. In kind it is functional.
The test system of series [14] is Porphyromonas gingivalis. Nature of the series: Antibiofilm activity against Porphyromonas gingivalis ATCC 33277 after 72 hrs. In kind it is functional.
In series [15] the test system is Pseudomonas aeruginosa. Nature of the series: Antibacterial activity against ticarcillin/piperacillin/ceftazidime/cefepime-resistant Pseudomonas aeruginosa clinical isolate PA1255. It is filed as functional.
For series [16], the system named is Staphylococcus epidermidis. Put plainly: Antibiofilm activity against Staphylococcus epidermidis RP62A after 72 hrs. It is filed as functional.
Series [17] concerns Pseudomonas aeruginosa. Put plainly: Antibiofilm activity against Pseudomonas aeruginosa on smooth titanium disc at 3.7 ug/ml after 19 hrs by confocal laser scanning microscopy. It is filed as functional, organism-based.
Series [18] can be described thus: Cytotoxicity against human endothelial cells at 4.63 ug/ml after 2 hrs. In kind it is cell-based. The following applies: endothelial cell.
For series [19], the system named is Pseudomonas aeruginosa. Put plainly: Antibacterial activity against wild-type Pseudomonas aeruginosa YM. In kind it is functional.
Series [20] has as its system Pseudomonas aeruginosa. Nature of the series: Antibacterial activity against Pseudomonas aeruginosa PA14. In kind it is functional.
Series [21] relates to Pseudomonas aeruginosa. Nature of the series: Antibiofilm activity against Pseudomonas aeruginosa PA14 after 24 hrs. It is filed as functional.
Series [22] has as its system Pseudomonas aeruginosa. Nature of the series: Antibacterial activity against ticarcillin/piperacillin-resistant Pseudomonas aeruginosa clinical isolate PA346. It is filed as functional.
The test system of series [23] is Pseudomonas aeruginosa. Put plainly: Antibacterial activity against ticarcillin-resistant Pseudomonas aeruginosa clinical isolate PA1271. It is filed as functional.
Series [24] has as its system Pseudomonas aeruginosa. Put plainly: Antibiofilm activity against Pseudomonas aeruginosa on smooth titanium disc assessed as dead cells in biofilm at 12 ug/ml after 19 hrs by confocal laser scanning microscopy relative to control. It is filed as functional, organism-based.
The subject of series [25] is Staphylococcus epidermidis. Nature of the series: Antibacterial activity against Staphylococcus epidermidis RP62A. It is filed as functional.
Series [26] deals with Pseudomonas aeruginosa. Nature of the series: Antibacterial activity against ticarcillin-resistant Pseudomonas aeruginosa clinical isolate PA424. It is filed as functional.
For series [27], the system named is Pseudomonas aeruginosa. Put plainly: Antibacterial activity against ticarcillin-resistant Pseudomonas aeruginosa clinical isolate PA53. In kind it is functional.
Series [28] relates to Pseudomonas aeruginosa. Put plainly: Antibacterial activity against Pseudomonas aeruginosa clinical isolate PA1270. It is filed as functional.
For series [29], the system named is Pseudomonas aeruginosa. Put plainly: Antibiofilm activity against Pseudomonas aeruginosa assessed as decrease of culturable cells in biofilm at >= 4.63 ug/ml after 24 hrs by plate counting method. It is filed as functional, organism-based.
The test system of series [30] is Pseudomonas aeruginosa. Put plainly: Antibacterial activity against Pseudomonas aeruginosa clinical isolate PA1256. It is filed as functional.
In series [31] the test system is Pseudomonas aeruginosa. Put plainly: Antibacterial activity against Pseudomonas aeruginosa YM64 expressing mexAB-oprM::FRT/mexXY::FRT/mexCD-oprJ::FRT/mexEF-oprN::FRT deletion mutant. It is filed as functional.
Series [32] deals with Pseudomonas aeruginosa. Nature of the series: Bactericidal activity against Pseudomonas aeruginosa. It is filed as functional.

The term MIC denotes the least concentration at which growth counts as inhibited. Read a high MIC as a less susceptible organism. In general, MBC refers to the smallest concentration meeting the test's criterion for killing. A lower MBC goes with greater bactericidal potency.

As to `OCCn1c2ccccc2c2cc(Cl)ccc21`, in [1], the MIC came out at 18.5 µg/mL (≈ 75.3 µM).
For `CN(CCO)CC(O)Cn1c2ccc(Cl)cc2c2cc(Cl)ccc21` (stereo not drawn), the MIC in series [1] stood at 18.5 µg/mL (≈ 50.4 µM).
Molecule `OCCN(CCO)CC(O)Cn1c2ccc(Cl)cc2c2cc(Cl)ccc21` (stereo not drawn) had an MIC in series [1] above 74 µg/mL.
Consider `OC(CNCC1CCCO1)Cn1c2ccc(Cl)cc2c2cc(Cl)ccc21` (stereo not drawn), for which the MIC in [1] stood at 18.5 µg/mL (≈ 47 µM).
The molecule GENTAMICIN returned an MIC in [2] of 12.5 µg/mL.
For the molecule `CC1COc2c(N3CCN(C)CC3)c(F)cc3c(=O)c(C(=O)O)cn1c23` (stereo not drawn) [OFLOXACIN], in series [3], the MIC worked out at 0.1 µg/mL (≈ 0.277 µM).
Regarding `CCN(CC)CC(O)Cn1c2ccc(Cl)cc2c2cc(Cl)ccc21` (stereo not drawn), the MIC in series [1] came to 37 µg/mL (≈ 101 µM).
For `CCC(C)NCC(O)Cn1c2ccc(Cl)cc2c2cc(Cl)ccc21` (stereo not drawn), the MBIC in series [4] is 9.25 µg/mL; in series [14], 5.11 µg/mL; in [16], 9.25 µg/mL; in [21], 18.5 µg/mL. Moreover, the MIC in [5] is 18.5 µg/mL (≈ 50.6 µM); in series [6] it was 18.5 µg/mL (≈ 50.6 µM); in series [9], 4.63 µg/mL (≈ 12.7 µM); in series [3], 4.63 µg/mL (≈ 12.7 µM); in series [1] it was 18.5 µg/mL (≈ 50.6 µM); in series [13], 18.5 µg/mL (≈ 50.6 µM). For the same molecule, the MIC was 18.5 µg/mL (≈ 50.6 µM) in [15]; 18.5 µg/mL (≈ 50.6 µM) in series [19]; 18.5 µg/mL (≈ 50.6 µM) in [20]; 18.5 µg/mL (≈ 50.6 µM) in series [22]; 18.5 µg/mL (≈ 50.6 µM) in [23]; 9.25 µg/mL (≈ 25.3 µM) in series [25]. Besides, the MIC in series [26] was found to be 18.5 µg/mL (≈ 50.6 µM); in series [27], 18.5 µg/mL (≈ 50.6 µM); in series [28], 18.5 µg/mL (≈ 50.6 µM); in series [2], 9.25 µg/mL (≈ 25.3 µM); in series [30], 9.25 µg/mL (≈ 25.3 µM); in series [31] it was 4.63 µg/mL (≈ 12.7 µM). In addition, the Activity entry in series [7] was “Non-toxic”; in [18] it was “Toxic”. The viability at 2 h, 4.63 ug/ml in [8] and in series [12] was above 80% in each case. In series [10], this molecule had an MBIC90 of 2.22 µg/mL. Further, in series [11], the “inhibition (INH)” value amounted to 50%. In addition, the outcome in series [17], in series [24] and in series [29] was Active. This molecule also came in with an MBC in series [32] of 18.5 µg/mL (≈ 50.6 µM).
For `CN(C)CC(O)Cn1c2ccc(Br)cc2c2cc(Br)ccc21` (stereo not drawn), the MIC in [1] amounted to 18.5 µg/mL (≈ 43.4 µM).
In series [1], `OC(CN1CCCCC1)Cn1c2ccc(Cl)cc2c2cc(Cl)ccc21` (stereo not drawn) showed an MIC of 74 µg/mL (≈ 196 µM).
In turn, `N=C(NCCCCCCNC(=N)NC(=N)Nc1ccc(Cl)cc1)NC(=N)Nc1ccc(Cl)cc1` [CHLORHEXIDINE] registered a minimum inhibitory concentration (MIC) in series [9] of 4 µg/mL (≈ 7.91 µM).
As to `O=C(O)c1cn(C2CC2)c2cc(N3CCNCC3)c(F)cc2c1=O` [CIPROFLOXACIN], the minimum inhibitory concentration (MIC) in [25] came out at 1.56 µg/mL (≈ 4.71 µM).
